Test results: ChEMBL document CHEMBL3217469, “Redesigning the designer drug ecstasy: non-psychoactive MDMA analogues exhibiting Burkitt's lymphoma cytotoxicity” (Medchemcomm, 2010); call rule not given here

How the values were obtained:
[1] = Cytotoxicity against human L3055 cells assessed as reduction in [3H]thymidine incorporation after 24 hrs by propidium iodide staining-based assay; format: functional, cell-based
[2] = target: Sodium-dependent serotonin transporter (Rattus norvegicus, UniProt P31652); assay: Displacement of [3H]citalopram from SERT in Sprague-Dawley rat whole brain after 60 mins by scintillation counting analysis
Transporter = Transporter (Rattus norvegicus, UniProt Q63380); assay: Displacement of [3H]nisoxetine from NET in Sprague-Dawley rat cerebellum after 60 mins by scintillation counting analysis
[3] = target: T1, 5-hydroxytryptamine receptor 1A (Rattus norvegicus, UniProt P19327); assay: Displacement of [3H]WAY100635 from 5-HT1A receptor in Sprague-Dawley rat cerebral cortex after 60 mins by scintillation counting analysis; format: tissue-based
T1 sequence (P19327 whole entry): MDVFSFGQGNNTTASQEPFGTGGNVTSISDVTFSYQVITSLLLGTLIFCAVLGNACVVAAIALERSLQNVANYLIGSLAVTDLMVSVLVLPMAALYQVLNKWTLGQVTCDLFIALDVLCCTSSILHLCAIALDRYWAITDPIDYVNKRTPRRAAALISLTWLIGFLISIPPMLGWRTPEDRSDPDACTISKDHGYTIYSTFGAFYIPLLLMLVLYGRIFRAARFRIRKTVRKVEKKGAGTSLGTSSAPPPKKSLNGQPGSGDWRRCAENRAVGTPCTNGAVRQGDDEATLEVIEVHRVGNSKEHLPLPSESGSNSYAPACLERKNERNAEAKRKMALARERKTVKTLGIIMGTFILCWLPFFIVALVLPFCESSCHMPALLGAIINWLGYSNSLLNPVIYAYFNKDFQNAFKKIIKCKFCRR

[4] = Ratio of MDMA IC50 to compound IC50 for human L3055 cells; format: functional
Rattus norvegicus [5] = assay: Induction of psychotic activity in Wistar rat assessed as reduction in prepulse inhibition of acoustic startle reflex at 4.4 to 88 umol/kg; format: organism-based; conditions: in vivo
Serotonin 1B/1D receptor = Serotonin 1B/1D receptor (Rattus norvegicus, UniProt P28564+P28565); assay: Displacement of [3H]GR125743 from 5-HT1B/1D receptor in Sprague-Dawley rat whole brain after 60 mins by scintillation counting analysis
[6] = target: Sodium-dependent dopamine transporter (Rattus norvegicus, UniProt P23977); assay: Displacement of [3H]GBR12935 from DAT in Sprague-Dawley rat striatum after 45 mins by scintillation counting analysis
[7] = target: T2, 5-hydroxytryptamine receptor 2C (Rattus norvegicus, UniProt P08909); assay: Displacement of [3H]mesulergine from 5-HT2C receptor in Sprague-Dawley rat whole brain after 60 mins by scintillation counting analysis
T2 sequence (P08909 whole entry): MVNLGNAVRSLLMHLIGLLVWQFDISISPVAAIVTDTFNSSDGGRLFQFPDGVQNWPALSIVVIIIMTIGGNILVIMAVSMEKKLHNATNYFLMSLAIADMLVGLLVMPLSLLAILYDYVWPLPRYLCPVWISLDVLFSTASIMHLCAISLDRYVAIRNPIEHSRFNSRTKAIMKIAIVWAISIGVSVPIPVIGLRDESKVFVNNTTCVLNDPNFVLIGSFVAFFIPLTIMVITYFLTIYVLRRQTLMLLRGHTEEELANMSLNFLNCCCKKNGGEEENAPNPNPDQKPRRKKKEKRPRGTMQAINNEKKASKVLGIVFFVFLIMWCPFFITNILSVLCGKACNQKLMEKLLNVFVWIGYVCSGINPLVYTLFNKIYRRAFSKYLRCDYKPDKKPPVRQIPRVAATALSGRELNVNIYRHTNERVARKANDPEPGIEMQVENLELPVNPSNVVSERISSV

SH-SY5Y = assay: Neurotoxicity against human SH-SY5Y cells at 1 to 600 uM after 24 hrs by Alamar Blue assay; format: toxicity, cell-based
[8] = target: 5-hydroxytryptamine receptor 2A (Rattus norvegicus, UniProt P14842); assay: Displacement of [3H]-ketanserin from 5-HT2A receptor in Sprague-Dawley rat cerebral cortex after 45 mins by scintillation counting analysis; format: tissue-based
Rattus norvegicus [9] = organism: Rattus norvegicus; assay: Induction of psychotic activity in Wistar rat assessed as reduction in prepulse inhibition of acoustic startle reflex; format: organism-based; conditions: in vivo

Sequence of Sodium-dependent dopamine transporter (P23977 whole entry): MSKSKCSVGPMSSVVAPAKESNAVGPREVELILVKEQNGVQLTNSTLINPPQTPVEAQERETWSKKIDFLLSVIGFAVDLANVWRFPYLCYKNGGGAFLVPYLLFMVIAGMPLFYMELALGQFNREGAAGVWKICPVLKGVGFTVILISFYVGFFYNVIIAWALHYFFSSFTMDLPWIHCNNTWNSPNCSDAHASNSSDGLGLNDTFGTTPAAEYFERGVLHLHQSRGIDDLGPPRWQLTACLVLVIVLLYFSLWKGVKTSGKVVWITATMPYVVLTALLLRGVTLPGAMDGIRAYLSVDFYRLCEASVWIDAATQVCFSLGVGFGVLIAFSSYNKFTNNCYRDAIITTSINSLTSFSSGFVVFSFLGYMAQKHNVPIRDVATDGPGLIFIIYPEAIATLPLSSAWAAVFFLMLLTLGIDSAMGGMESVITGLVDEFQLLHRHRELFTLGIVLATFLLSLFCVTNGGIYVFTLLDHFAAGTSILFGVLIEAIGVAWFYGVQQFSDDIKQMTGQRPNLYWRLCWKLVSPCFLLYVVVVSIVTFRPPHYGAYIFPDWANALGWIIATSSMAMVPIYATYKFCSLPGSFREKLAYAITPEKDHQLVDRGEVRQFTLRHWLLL
Sequence of 5-hydroxytryptamine receptor 2A (P14842 whole entry): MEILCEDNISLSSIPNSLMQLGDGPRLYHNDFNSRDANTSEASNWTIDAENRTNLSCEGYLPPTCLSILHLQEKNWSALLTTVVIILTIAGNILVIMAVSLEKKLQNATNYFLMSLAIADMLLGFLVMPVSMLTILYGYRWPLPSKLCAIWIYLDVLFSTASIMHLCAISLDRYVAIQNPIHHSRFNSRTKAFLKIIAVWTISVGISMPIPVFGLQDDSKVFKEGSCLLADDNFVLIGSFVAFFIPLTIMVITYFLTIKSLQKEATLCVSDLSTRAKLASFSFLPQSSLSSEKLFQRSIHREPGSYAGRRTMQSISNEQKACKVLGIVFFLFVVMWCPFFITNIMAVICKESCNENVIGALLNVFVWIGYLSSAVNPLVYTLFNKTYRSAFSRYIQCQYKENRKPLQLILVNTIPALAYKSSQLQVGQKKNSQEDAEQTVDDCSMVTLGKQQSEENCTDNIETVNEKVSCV
Sequence of Sodium-dependent serotonin transporter (P31652 whole entry): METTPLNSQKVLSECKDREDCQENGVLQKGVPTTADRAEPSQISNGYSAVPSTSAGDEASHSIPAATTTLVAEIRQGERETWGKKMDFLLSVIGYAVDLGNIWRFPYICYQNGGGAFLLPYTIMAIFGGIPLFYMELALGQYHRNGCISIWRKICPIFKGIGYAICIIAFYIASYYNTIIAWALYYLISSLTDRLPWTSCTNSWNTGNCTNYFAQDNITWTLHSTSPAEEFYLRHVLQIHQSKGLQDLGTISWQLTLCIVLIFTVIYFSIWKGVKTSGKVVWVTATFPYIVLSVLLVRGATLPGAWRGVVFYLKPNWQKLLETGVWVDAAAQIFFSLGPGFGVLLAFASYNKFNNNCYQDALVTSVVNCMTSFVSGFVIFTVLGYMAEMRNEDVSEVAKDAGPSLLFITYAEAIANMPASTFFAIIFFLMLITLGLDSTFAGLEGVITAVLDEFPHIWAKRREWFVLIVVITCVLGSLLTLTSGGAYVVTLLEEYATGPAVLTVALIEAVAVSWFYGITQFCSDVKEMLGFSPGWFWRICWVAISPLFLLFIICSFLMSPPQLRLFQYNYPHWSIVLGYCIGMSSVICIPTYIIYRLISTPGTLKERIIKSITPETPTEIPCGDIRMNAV
Sequence of Transporter (Q63380 whole entry): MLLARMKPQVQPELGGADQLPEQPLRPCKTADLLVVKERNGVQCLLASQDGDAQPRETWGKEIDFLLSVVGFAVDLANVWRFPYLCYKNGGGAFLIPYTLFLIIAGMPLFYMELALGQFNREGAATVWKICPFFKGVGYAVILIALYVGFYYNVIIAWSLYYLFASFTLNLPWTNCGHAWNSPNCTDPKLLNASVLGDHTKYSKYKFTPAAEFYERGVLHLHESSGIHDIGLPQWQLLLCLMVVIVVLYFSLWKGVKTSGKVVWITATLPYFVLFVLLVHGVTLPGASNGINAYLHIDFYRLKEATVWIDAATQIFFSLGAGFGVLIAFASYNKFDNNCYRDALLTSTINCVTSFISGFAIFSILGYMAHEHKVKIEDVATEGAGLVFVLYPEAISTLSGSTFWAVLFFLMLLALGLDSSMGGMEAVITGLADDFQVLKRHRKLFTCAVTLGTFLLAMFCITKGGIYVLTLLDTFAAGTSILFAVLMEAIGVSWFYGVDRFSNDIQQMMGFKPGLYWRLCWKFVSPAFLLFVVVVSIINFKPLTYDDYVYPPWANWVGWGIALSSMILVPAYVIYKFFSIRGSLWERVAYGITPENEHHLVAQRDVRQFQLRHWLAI

CNC(Cc1ccc2c(c1)OCO2)c1ccccc1.Cl (racemic)
IC50 [1]: 76 µM
Ki [2]: 1.32 µM
Ki (Transporter): 0.7 µM
Ki [3]: > 10 µM
Ratio IC50 [4]: 7
Activity (Rattus norvegicus [5]): Non-toxic
Ki (Serotonin 1B/1D receptor): > 10 µM
Ki [6]: > 10 µM
Ki [7]: > 10 µM
Activity (SH-SY5Y): Toxic
Ki [8]: 1.23 µM

CNC(Cc1ccc2c(c1)OCO2)c1ccccc1C (racemic)
IC50 [1]: 65 µM

CNC(Cc1ccc2c(c1)OCO2)C(C)C (racemic)
IC50 [1]: 651 µM

CNC(Cc1ccccc1)Cc1ccc2c(c1)OCO2 (racemic)
IC50 [1]: 69 µM

CNC(Cc1ccc2c(c1)OCO2)c1ccccc1OC (racemic)
IC50 [1]: 92 µM

CNC(Cc1ccc2c(c1)OCO2)C1CCCCC1 (racemic)
IC50 [1]: 81 µM

CNC(Cc1ccc2c(c1)OCO2)Cc1ccc2c(c1)OCO2
IC50 [1]: 36.7 µM

CNC(Cc1ccc2c(c1)OCO2)C1CC1 (racemic)
IC50 [1]: 801 µM

CNC(Cc1ccc2c(c1)OCO2)c1ccc(OC)cc1 (racemic)
IC50 [1]: 69 µM

CNC(Cc1ccc2c(c1)OCO2)c1cccc2ccccc12.Cl (racemic)
IC50 [1]: 12.6 µM
Ratio IC50 [4]: 100
Activity (SH-SY5Y): Non-toxic

CNC(C)Cc1ccc2c(c1)OCO2.Cl (centres undefined) [MIDOMAFETAMINE HYDROCHLORIDE]
IC50 [1]: 507 µM
Ki [2]: 0.21 µM
Ki (Transporter): > 10 µM
Ki [3]: > 10 µM
Activity (Rattus norvegicus [9]): Dose-dependent effect
Ki (Serotonin 1B/1D receptor): > 10 µM
Ki [6]: > 10 µM
Ki [7]: > 10 µM
Activity (SH-SY5Y): Toxic
Ki [8]: > 10 µM

CCCC(Cc1ccc2c(c1)OCO2)NC (racemic)
IC50 [1]: 379 µM

CNC(Cc1ccc2c(c1)OCO2)c1ccc2ccccc2c1.Cl (racemic)
IC50 [1]: 6.6 µM
Ratio IC50 [4]: 100
Activity (SH-SY5Y): Non-toxic

CNC(Cc1ccc2c(c1)OCO2)C(C)(C)C (racemic)
IC50 [1]: 447 µM

COc1ccc(CC(C)N)cc1 (centres undefined) [PARA-METHOXYAMPHETAMINE]
Activity (Rattus norvegicus [9]): Dose-dependent effect

CNC(Cc1ccc2c(c1)OCO2)c1ccc(F)cc1 (racemic)
IC50 [1]: 63 µM

CNC(Cc1ccc2c(c1)OCO2)c1ccc(-c2ccccc2)cc1 (racemic)
IC50 [1]: 6 µM

CNC(Cc1ccc2c(c1)OCO2)c1cccc(OC)c1 (racemic)
IC50 [1]: 80 µM

CNC(Cc1ccc2c(c1)OCO2)c1ccc(C)cc1 (racemic)
IC50 [1]: 42 µM

CCC(Cc1ccc2c(c1)OCO2)NC (racemic)
IC50 [1]: 707 µM

CNC(Cc1ccc2c(c1)OCO2)c1cccc(C)c1 (racemic)
IC50 [1]: 51 µM
